Holding throughout (type): physicochemical
The nature of one series: physchem. Particulars: 1-octanol/water. The text has this:
(§1) Protonation of the alkaloid hinders partition into the solvent, but the dependence of the distribution coefficient on pH is different for each isomer due to their different basicity. When the isomerization takes place in such a two-phase system, the equilibrium obtained in the organic phase is different from that in the aqueous phase. As an example, the coefficients of distribution Ko/w of mitraphylline and isomitraphylline between 1-octanol and water at three pH values and the corresponding equilibria are given in table 6 (FIG.11). |Coefficients of distribution between 1-octanol and water KO/W for |mitraphylline and isomitraphylline and the resulting equilibria as a |function of pH at 25° C. (% per weight).

Series [1] in a line: Effect of temperature and solvent on the equilibrium composition of the mitraphylline isomers. The source says: The use of solvents with different polarity gave different equilibria, while other conditions were identical.
Series [2] can be described thus: Equilibrium of mitraphylline isomers in the two-phase system 1-octanol/water. Particulars: for resulting equilibrium (water): aqueous phase; for resulting equilibrium (octanol): octanol phase.
From the text: as §1

Series [3] can be described thus: Rate of isomerization of pteropodine in solvents and solvent mixtures. The following applies: 50° C.; for rate coefficient of isomerization k: k = k12 + k13 + k14 from initial rate. The method, then: It is known from the literature that oxindole alkaloids undergo isomerization in polar solvents. Therefore hexafluoropropan-2-ol as a highly polar solvent was examined for its suitability as a medium for isomerization. A solution of pteropodine in hexafluoropropan-2-ol with a concentration of 18 mg/l was allowed to rest for 8 days at 20° C. Continually, samples were taken and analyzed. […] Pyridine has been reported to be a suitable solvent for the isomerization, although its polarity is very low. Our results confirmed this, but only when at least small portions of water were present. […] Important causes of solvent polarity are the dielectricity constant and the ability to form hydrogen bonds. The correlation of dielectricity and rate of reaction was investigated (table 1). | Correlation of the rate coefficient of isomerization of pteropodine and |dielectricity constant ε in pure solvents at 50° C.^a | ^a The rate coefficient k was determined from the initial rate of | isomerization of pteropodine and, therefore, is a composite coefficient k | = k12 + k13 + k14 and has the dimension [h^-1 ]. The | coefficient k12 describes the transformation of pteropodine to | isopteropodine, k13 to speciophylline and k14 to uncarine F, | respectively. […] But it was noticed that solvents with the ability to form hydrogen bonds, like formamide, water, glycerol or methanol, effect faster isomerization than solvents without this ability. […] Consequently, mixtures of solvents were produced from one part with a high dielectricity constant and another part with the ability to form hydrogen bonds as a proton donor. Mixtures of one part formamide and one part alcohol turned out to be suitable reaction media. Water is the only solvent which combines a high dielectricity constant with the ability to form hydrogen bonds to an extent which allows satisfactory reaction rates. However, oxindole alkaloids are practically insoluble in water. Thus, it is obvious to use suitable co-solvents.

A short description of series [4]: Effect of temperature on the rate of isomerization of pteropodine. The following applies: water, c=20 mg/l, 50 hours. The method, then:
The effect of temperature on the rate of reaction was investigated. Pteropodine was dissolved in water (c=20 mg/l) and isomerized at various temperatures for 50 hours. The reactions were monitored (FIG. 9). An increase of temperature by 12° C. accelerated the reaction by a factor of 5.

Series [5] is described as follows: Isomerization of pteropodine in hexafluoropropan-2-ol. Particulars: 18 mg/l, 8 days at 20° C. The method, then: It is known from the literature that oxindole alkaloids undergo isomerization in polar solvents. Therefore hexafluoropropan-2-ol as a highly polar solvent was examined for its suitability as a medium for isomerization. A solution of pteropodine in hexafluoropropan-2-ol with a concentration of 18 mg/l was allowed to rest for 8 days at 20° C. Continually, samples were taken and analyzed. […] Pyridine has been reported to be a suitable solvent for the isomerization, although its polarity is very low. Our results confirmed this, but only when at least small portions of water were present. […] Important causes of solvent polarity are the dielectricity constant and the ability to form hydrogen bonds. The correlation of dielectricity and rate of reaction was investigated (table 1).

Series [6] is described as follows: Effect of temperature and solvent on the equilibrium composition of the pteropodine isomers. The method, then:
| Effect of temperature and solvent on the equilibrium composition | of the pteropodine isomers (temperature from 25 to | 50° C., % per weight) The use of solvents with different polarity gave different equilibria, while other conditions were identical.

Series [7] can be described thus: Effect of pH on equilibrium and rate of isomerization. Particulars: for dependence of isomer equilibrium mixture on pH: water-methanol 9:1, c=30 mg/l. The text has this: It is known from the literature (J. -L. Pousset, J. Poisson and M. Shamma, Bull.Soc.Chim. (1967), 2766) that oxindole alkaloids isomerize via a zwitterionic intermediate which is formed at the β-amino carboxyl system. There a double bond is formed between the amino nitrogen and the β-carbon, the bond between α and β-carbon is opened, and the spiro centre at the co-carbon becomes free for inversion (FIG. 2). […] The pH of a mixture of 9 parts of water and 1 part of methanol was adjusted to values from 2 to 9 by addition of phosphoric acid or sodium hydroxide, respectively. Pteropodine (c=30 mg/l) was isomerized in these solvents until the equilibrium was reached. […] The dependence of the pteropodine equilibrium on pH in pure water was investigated, too (FIG. 3b). […] (FIG. 4).

For the molecule `COC(=O)C1=COC(C)C2CN3CCC4(C(=O)Nc5ccccc54)C3CC12` (stereo not drawn) [Isomitraphylline, isomitraphylline], the “log KO/W” value was determined as 0.43 in “physchem” (pH 3), 2.3 in “physchem” (pH 5) and 2.8 in “physchem” (pH 7). Also, the equilibrium composition in series [1] (25° C., methanol) was 77.5 % per weight; in series [1] (25° C., water), 65.6 % per weight; in series [1] (37° C., methanol) it was 75.0 % per weight; in series [1] (37° C., water), 67.5 % per weight; in series [1] (50° C., methanol) it was 73.7 % per weight; in series [1] (50° C., water), 68.0 % per weight. Also, the “resulting equilibrium (water)” value amounted to 11.9 % per weight in series [2] (pH 3, 25° C.); 0.5 % per weight in series [2] (pH 5, 25° C.); 0.08 % per weight in series [2] (pH 7, 25° C.). Besides, the “resulting equilibrium (octanol)” value in series [2] (pH 3, 25° C.) was 32.0 % per weight; in series [2] (pH 5, 25° C.) it was 93.9 % per weight; in series [2] (pH 7, 25° C.) it was 78.8 % per weight.
As a reminder, the logD is the decadic logarithm of the distribution of all forms, ionised or not, between an organic phase and buffer at a given pH. Low readings indicate a more hydrophilic compound, high ones a more lipophilic compound. Regarding `COC(=O)C1=COC(C)C2CN3CCC4(C(=O)Nc5ccccc54)C3CC12` (stereo not drawn) [Mitraphylline, mitraphylline], the “log KO/W” value in the series “physchem” (pH 3) was -0.24; in “physchem” (pH 5) it was 0.67. This molecule displayed a logD in the series “physchem” (pH 7, log KO/W) of 2.5. In addition, the equilibrium composition in series [1] (25° C., methanol) amounted to 22.5 % per weight; in series [1] (25° C., water) it was 34.4 % per weight; in series [1] (37° C., methanol), 25.0 % per weight; in series [1] (37° C., water) it was 32.5 % per weight; in series [1] (50° C., methanol), 26.3 % per weight; in series [1] (50° C., water), 32.0 % per weight. In addition, the “resulting equilibrium (water)” value was determined as 35.6 % per weight in series [2] (pH 3, 25° C.); 1.0 % per weight in series [2] (pH 5, 25° C.); 0.12 % per weight in series [2] (pH 7, 25° C.). Also, the “resulting equilibrium (octanol)” value in series [2] (pH 3, 25° C.) worked out at 20.5 % per weight; in series [2] (pH 5, 25° C.) it was 4.6 % per weight; in series [2] (pH 7, 25° C.) it was 21.0 % per weight.
Consider `COC(=O)C1=COC(C)C2CN3CCC4(C(=O)Nc5ccccc54)C3CC12` (stereo not drawn) [Pteropodine, pteropodine], for which the “rate coefficient of isomerization k” value in series [3] (dimethyl sulfoxide) turned out to be 0.00007 h⁻¹; in series [3] (dioxane), 0.0000004 h⁻¹; in series [3] (formamide) it was 0.005 h⁻¹; in series [3] (glycerol), 0.0072 h⁻¹; in series [3] (methanol) it was 0.0020 h⁻¹; in series [3] (pyridine), 0.00002 h⁻¹. Moreover, in series [3] (water), the “rate coefficient of isomerization k” value turned out to be 1.11 h⁻¹. Besides, the “rate of isomerization k” value in series [3] (formamide-hexafluorpropan-2-ol (1:1)) came to 0.0037 h⁻¹; in series [3] (formamide-methanol (1:1)), 0.0050 h⁻¹; in series [3] (methanol-dimethyl sulfoxide (1:1)), 0.0018 h⁻¹; in series [3] (methanol-dioxane (1:1)) it was 0.0024 h⁻¹; in series [3] (water-acetonitrile (1:1)) it was 0.042 h⁻¹; in series [3] (water-dioxane (1:1)), 0.0012 h⁻¹. For the same molecule, the “rate of isomerization k” value came to 0.067 h⁻¹ in series [3] (water-formamide (1:1)), 0.043 h⁻¹ in series [3] (water-methanol (1:1)) and 0.002 h⁻¹ in series [3] (water-pyridine (1:1)). Besides, the “acceleration of the reaction by an increase of temperature by 12° C. (factor)” value in series [4] stood at 5. In addition, the isomerization result in series [5] is “No isomerization was observed”. In addition, the equilibrium composition is recorded as 22.9 % per weight in series [6] (25° C., methanol); 29.6 % per weight in series [6] (25° C., water); 22.6 % per weight in series [6] (37° C., methanol); 29.8 % per weight in series [6] (37° C., water); 23.5 % per weight in series [6] (50° C., methanol); 29.6 % per weight in series [6] (50° C., water). The “dependence of isomer equilibrium mixture on pH” value is listed as “depended characteristically on the pH value” in series [7] (acidic solutions) and “independent of pH in neutral or alkaline solutions” in series [7] (neutral or alkaline solutions). The “rate of reaction with increasing proton concentration” value in series [7] (pH 2 to 9) is “decreased with increasing proton concentration”.
With `COC(=O)C1=CO[C@@H](C)[C@@H]2CN3CC[C@@]4(C(=O)Nc5ccccc54)[C@@H]3C[C@H]12` [Isopteropodine, isopteropodine], the equilibrium composition in series [6] (25° C., methanol) was 75.4 % per weight; in series [6] (25° C., water), 60.9 % per weight; in series [6] (37° C., methanol) it was 75.5 % per weight; in series [6] (37° C., water), 59.6 % per weight; in series [6] (50° C., methanol) it was 73.5 % per weight; in series [6] (50° C., water), 59.4 % per weight.
Regarding `COC(=O)C1=COC(C)C2CN3CCC4(C(=O)Nc5ccccc54)C3CC12` (stereo not drawn) [Uncarine F, uncarine F], the equilibrium composition in series [6] (25° C., methanol) worked out at 1.3 % per weight; in series [6] (25° C., water) it was 5.2 % per weight; in series [6] (37° C., methanol) it was 1.4 % per weight; in series [6] (37° C., water), 6.1 % per weight; in series [6] (50° C., methanol), 2.0 % per weight; in series [6] (50° C., water), 6.4 % per weight.
Regarding `COC(=O)C1=COC(C)C2CN3CCC4(C(=O)Nc5ccccc54)C3CC12` (stereo not drawn) [Speciophylline, speciophylline], the equilibrium composition in series [6] (25° C., methanol) was 0.4 % per weight; in series [6] (25° C., water), 4.3 % per weight; in series [6] (37° C., methanol), 0.5 % per weight; in series [6] (37° C., water) it was 4.5 % per weight; in series [6] (50° C., methanol), 1.0 % per weight; in series [6] (50° C., water) it was 4.6 % per weight.

Source of the values: US5723625A, “Process for the production of specific isomer mixtures from oxindole alkaloids” (Immodal Pharmaka Gesellschaft m.b.H, priority 1994, dated 1998).
